Data as given in ChEMBL document CHEMBL5042504 (J Med Chem, 2022).
Each block holds one compound with its values, some of them ahead of it. The source made the active and inactive calls. The rule behind the calls is not given here.

How the values were obtained:
[1] = Cmax in CD-1 mouse at 5 mg/kg, iv measured upto 24 hrs; type: ADME, organism-based; parameters: route intravenous, dose 5 mg/kg, time <=24; conditions: in vivo
[2] = AUC (0 to infinity) in CD-1 mouse at 5 mg/kg, iv measured upto 24 hrs; type: ADME, organism-based; parameters: route intravenous, dose 5 mg/kg, time <=24; conditions: in vivo
MV4-11 [3] = experiment: Down regulation of p21 expression in human MV4-11 cells at 200 nM measured after 24 hrs by Western blot analysis; type: functional, cell-based
MV4-11 [4] = experiment: Cell cycle arrest in human wt-p53 MV4-11 cells assessed as accumulation at G2/M-phase at 200 nM measured after 24 hrs realtive to control; type: functional, cell-based
HL-60 [5] = experiment: Induction of apoptosis in human p53 null HL-60 cells assessed as […] at 200 nM measured after 24 hrs by FITC Annexin V/propidium iodide staining based flow cytometry (reference value: 20.55%); type: functional; conditions: read-out: Activity
HL-60 [6] = experiment: Induction of apoptosis in human p53 null HL-60 cells assessed as […] at 500 nM measured after 24 hrs by FITC Annexin V/propidium iodide staining based flow cytometry (reference value: 20.55%); type: functional; conditions: read-out: Activity
HL-60 [7] = experiment: Cell cycle arrest in human […] HL60 cells assessed as accumulation at G2/M-phase at 500 nM measured after 24 hrs realtive to control; type: functional, cell-based
[8] = Drug uptake in BALB/c mouse xenografted with human AML MV4-11 cells assessed as tumor tissue at 4mg/kg, po measured after 0.5 to 6 hrs by LC-MS/MS; type: ADME, organism-based; conditions: in vivo, time 0.5-6 hrs
[9] = Drug uptake in BALB/c mouse xenografted with human AML MV4-11 cells assessed as tumor tissue at 4 mg/kg ip measured after 0.5 to 6 hrs by LC-MS/MS; type: ADME, organism-based; conditions: in vivo, time 0.5-6 hrs
[10] = Plasma concentration in BALB/c mouse xenografted with human AML MV4-11 cells at 4 mg/kg, ip; type: ADME, organism-based; conditions: in vivo
Histone deacetylase 1 [11] = molecular target: T1, Histone deacetylase 1 (Homo sapiens, UniProt Q13547); experiment: Mixed type inhibition of human HDAC1 (unknown origin) by Lineweaver-Burk plot analysis
T1 sequence (Q13547 whole entry): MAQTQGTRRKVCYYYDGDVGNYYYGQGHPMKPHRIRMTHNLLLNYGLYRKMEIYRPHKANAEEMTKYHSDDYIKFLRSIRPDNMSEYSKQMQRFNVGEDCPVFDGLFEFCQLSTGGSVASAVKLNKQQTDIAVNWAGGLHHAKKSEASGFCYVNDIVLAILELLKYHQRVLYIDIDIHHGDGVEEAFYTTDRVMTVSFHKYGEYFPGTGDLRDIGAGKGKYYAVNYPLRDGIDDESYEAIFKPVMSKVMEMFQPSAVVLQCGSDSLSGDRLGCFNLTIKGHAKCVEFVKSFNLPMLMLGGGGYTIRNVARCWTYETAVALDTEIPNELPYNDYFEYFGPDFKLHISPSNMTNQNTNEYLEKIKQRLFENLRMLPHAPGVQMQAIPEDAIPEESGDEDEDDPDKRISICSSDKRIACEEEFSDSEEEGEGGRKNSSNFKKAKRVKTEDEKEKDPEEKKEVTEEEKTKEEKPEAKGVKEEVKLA

Histone deacetylase 1 [12] = molecular target: T1, Histone deacetylase 1; experiment: Inhibition of HDAC1 (unknown origin)preincubated upto 2 hrs by fluorescence based assay; conditions: time hrs <=2
Histone deacetylase 3 = Histone deacetylase 3 (Homo sapiens, UniProt O15379); experiment: Inhibition of HDAC3(unknown origin) preincubated upto 2 hrs by fluorescence based assay; conditions: time hrs <=2
Histone deacetylase 3, sequence (O15379 whole entry): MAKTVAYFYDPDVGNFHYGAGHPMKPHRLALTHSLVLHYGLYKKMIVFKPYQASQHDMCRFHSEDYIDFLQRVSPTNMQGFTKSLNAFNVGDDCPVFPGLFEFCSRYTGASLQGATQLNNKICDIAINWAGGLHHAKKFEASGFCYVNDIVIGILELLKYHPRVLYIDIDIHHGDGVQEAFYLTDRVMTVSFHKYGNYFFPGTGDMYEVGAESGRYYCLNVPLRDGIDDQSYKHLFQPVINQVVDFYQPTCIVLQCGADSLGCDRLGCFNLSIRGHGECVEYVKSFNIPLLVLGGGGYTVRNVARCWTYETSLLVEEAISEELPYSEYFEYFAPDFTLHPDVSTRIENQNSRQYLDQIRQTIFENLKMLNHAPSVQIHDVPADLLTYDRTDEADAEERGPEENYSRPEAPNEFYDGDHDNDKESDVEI

MV4-11 [13] = experiment: Antitumor activity against human MV4-11 cells xenografted in balb/c mouse assessed as accumulation of AcHH3 protein level at 4 mg/kg, po measured after 2 hrs; type: functional, organism-based
MV4-11 [14] = experiment: Antitumor activity against human MV4-11 cells xenografted in balb/c mouse assessed as accumulation of AcHH4 protein level at 4 mg/kg, po measured after 2 hrs; type: functional, organism-based
MV4-11 [15] = experiment: Antitumor activity against human MV4-11 cells xenografted in balb/c mouse assessed as accumulation of AcHH4 protein level at 4 mg/kg, po measured after 8 hrs; type: functional, organism-based
MV4-11 [16] = experiment: Antitumor activity against human MV4-11 cells xenografted in balb/c mouse assessed as accumulation of AcHH3 protein level at 4 mg/kg, po measured after 8 hrs; type: functional, organism-based
[17] = Drug distribution in BALB/c mouse spleen measured at 4 mg/kg, po or ip after 0.5 hrs; type: ADME, organism-based; conditions: in vivo
[18] = Drug distribution in BALB/c mouse liver measured at 4 mg/kg, po or ip after 0.5 hrs after 0.5 hrs; type: ADME, organism-based; conditions: in vivo
[19] = Drug distribution in BALB/c mouse kidney measured at 4 mg/kg, po or ip after 0.5 hrs after 0.5 hrs; type: ADME, organism-based; conditions: in vivo
[20] = Drug distribution in BALB/c mouse gut measured at 4 mg/kg, po or ip after 0.5 hrs after 0.5 hrs; type: ADME, organism-based; conditions: in vivo
[21] = Drug distribution in BALB/c mouse lung measured at 4 mg/kg, po or ip after 0.5 hrs after 0.5 hrs; type: ADME, organism-based; conditions: in vivo
[22] = Drug distribution in BALB/c mouse kidney measured at 4 mg/kg, po or ip after 2 to 8 hrs after 0.5 hrs; type: ADME, organism-based; conditions: in vivo, time 2-8 hrs
[23] = Drug distribution in BALB/c mouse gut measured at 4 mg/kg, po or ip after 2 to 8 hrs after 0.5 hrs; type: ADME, organism-based; conditions: in vivo, time 2-8 hrs
[24] = Drug distribution in BALB/c mouse brain measured at 4 mg/kg, po or ip after 2 to 8 hrs after 0.5 hrs; type: ADME, organism-based; conditions: in vivo, time 2-8 hrs
[25] = Drug distribution in BALB/c mouse lung measured at 4 mg/kg, po or ip after 2 to 8 hrs after 0.5 hrs; type: ADME, organism-based; conditions: in vivo, time 2-8 hrs
[26] = Drug metabolism in BALB/c mouse liver assessed as metabolized compound; type: ADME, tissue-based
[27] = Toxicity in BALB/c mouse xenografted with MV4-11 cells assessed as body weight loss
[28] = Toxicity in BALB/c mouse assessed as induction of pathological changes in lung by H and E staining based analysis; type: tissue-based; conditions: in vivo
[29] = Antitumor activity against human MV4-11 cells xenografted in BALB/c mouse assessed as growth inhibition at 2 to 4 mg/kg, po ad; type: functional; conditions: dose 2-4 mg/kg, time 24 day
[30] = Drug distribution in tumor of BALB/c mouse xenografted with human MV4-11 cells assessed as measured after 0.5 hrs; type: ADME; conditions: read-out: Ct
[31] = Drug distribution in tumor of BALB/c mouse xenografted with human MV4-11 cells assessed as measured after 2 hrs; type: ADME; conditions: read-out: Ct
[32] = Drug distribution in tumor of BALB/c mouse xenografted with human MV4-11 cells assessed as measured after 8 hrs; type: ADME; conditions: read-out: Drug uptake
MV4-11 [33] = experiment: cells; conditions: Homo sapiens, MV4-11, 48 h
Description: Antiproliferative activity against human MV4-11 AML cells assessed as cell viability measured after 48 hrs by multiplate reader method

Cmax [1]: 21600 ng/mL | AUC [2]: 32179 ng·h/mL | Drug uptake [8]: Active | Drug uptake [9]: Active | Drug uptake [10]: Active | IC50 (Histone deacetylase 1 [11]): 1.5 nM | Activity (Histone deacetylase 1 [12]): Active | Activity (Histone deacetylase 3): Active | Drug uptake [17]: Active | Drug uptake [18]: Active | Drug uptake [19]: Active | Drug uptake [20]: Active | Drug uptake [21]: Active | Drug uptake [22]: Active | Drug uptake [23]: Active | Drug uptake [24]: Active | Drug uptake [25]: Active | Drug metabolism [26]: Metabolite_Detected | concentration at 0.5 h [30]: 1130 ng/g | concentration at 2 h [31]: 882 ng/g | concentration at 8 h [32]: 151 ng/g
SMILES: CCCNNC(=O)c1ccc(CNC(=O)c2cc3ccccc3[nH]2)cc1
Activity (MV4-11 [3]): Active | Activity (MV4-11 [4]): Active | viability at 0.2 µM (HL-60 [5]): 32.6% | viability at 0.5 µM (HL-60 [6]): 44.8% | Activity (HL-60 [7]): Active | Activity (MV4-11 [13]): Active | Activity (MV4-11 [14]): Active | Activity (MV4-11 [15]): Active | Activity (MV4-11 [16]): Active | Activity [27]: Non-Toxic | Activity [28]: Non-Toxic | T/C [29]: 22.2%

IC50 (MV4-11 [33]): 36.4 nM
SMILES: CCCNNC(=O)c1ccc(CNC(=O)/C=C/c2ccccc2)cc1
